Source: US11801256B2, “Antidepressant-psilocybin co-treatment to assist psychotherapy” (Universitätsspital Basel, priority 2021, dated 2023)

Tests used:
[1] = Plasma drug concentrations and pharmacokinetic analyses; assay type: in vivo, human; settings: for elimination half-life / mean time to peak concentrations: psilocin glucuronide after 25 mg psilocybin
Protocol: The blood samples were immediately centrifuged, and the plasma was subsequently stored at −80° C. until analysis.
This allows to determine the concentrations of unconjugated psilocin and of psilocin glucuronide which corresponds to the difference between samples that were incubated with and without glucuronidase.

healthy subjects [2] = assay: QTc time; assay type: in vivo, human; settings: 2.5 hours after psilocybin administration compared with 1 hour before
Text: Exclusion criteria: Chronic or acute medical condition, including a history of seizures. Current or previous major psychiatric disorder (e.g. psychotic disorders, mania/hypomania, anxiety disorders, and substance abuse). Psychotic disorder in first-degree relatives, not including psychotic disorders secondary to an apparent medical reason, e.g. brain injury, dementia, or lesions of the brain. Illicit substance use (with the exception of cannabis) more than 10 times or any time within the previous two months. History of an angle closure glaucoma. Pregnant or nursing women. Participation in another clinical trial (currently or within the last 30 days). […] A corrected QT time (QTc), calculated by Bazett's formula, of over 450 milliseconds in males and over 470 milliseconds in females. Tobacco smoking (>10 cigarettes/day). Consumption of alcoholic drinks (>10 drinks/week). Bodyweight <45 kg.

healthy subjects [3] = assay: Adverse effects (list of complaints) and adverse events; assay type: in vivo, human
Protocol: (§1) Treatment order was random and counterbalanced.
Adverse effects (list of complaints): The list of complaints (LC) consists of 66 items offering a global score measuring physical and general discomfort (Zerssen, 1976). This scale yields a total adverse effects score and reliably measures physical and general discomfort. The LC list was administered 7 hours after administration of the drug with reference to complaints throughout the entire session.

healthy subjects [4] = assay: Subjective effects, visual analog scales (VAS), clinical study; assay type: in vivo, human; settings: 25 mg psilocybin
Protocol: as §1
Study procedures: Subjects took part in a 2-hour screening session, two 9.5-hour test sessions where the psilocybin was administered and a 1-hour end-of-study visit. The subjects were informed about the study both verbally and by the approved written consent form regarding the altered state of consciousness, the study procedures and associated risks. The investigator and the subject both personally signed and dated the consent form as confirmation of consent. Subjects were screened using a semi-structured clinical interview for DSM-IV (Diagnostic and Statistical Manual Version 4) (Wittchen et al., 1997) to exclude those with a personal or family (first-degree relative) axis I major psychiatric disorder (acute or past) or a history of illicit drug dependence. Axis I major psychiatric disorders included also addiction disorders. The sessions were conducted in a calm standard hospital room. Only one research subject and one investigator were present during the test sessions. The test sessions began at 9 AM. The subjects then underwent baseline measurements. […] Psilocybin was administered at 11:00 AM. The outcome measures were repeatedly assessed for 7 hours. The subjects were under constant supervision by an investigator until 6 PM. Thus, the subjects were never alone during the 7 hours after drug administration. The subjects were sent home at 6:30 PM.
Subjective Effects Questionnaire (Visual Analog Scales, VAS): VAS was repeatedly used to assess subjective alterations in consciousness over time. Single scales were presented as 100 mm horizontal lines marked with “not at all” on the left and “extremely” on the right. The following VAS items were used: “any drug effect”, “good drug effect”, “bad drug effect”, “drug liking”, “drug high”, “stimulated”, “fear”, “happy”, “content”, “trust”, “talkative”, “perception of time”, “open”, “concentration”, “speed of thinking”, “feeling close to others”, “wanting to be hugged”, “wanting to hug someone”, “desire to be alone”, “desire to be with others”, and “ego dissolution”. The VASs were presented as 100-mm horizontal lines (0-100%), marked from “not at all” on the left to “extremely” on the right. Some VASs were bidirectional (±50%). Marked from “not at all” on the left (−50), to “normal” in the middle (0), to “extremely” on the right (+50).
The criterion for significance was p<0.05.

healthy subjects [5] = assay: Autonomic measures (blood pressure, heart rate, body temperature, pupil size); settings: 25 mg psilocybin, healthy subjects
Protocol: Study design: A double-blind, cross-over design was used with two conditions. […] 2) Pretreatment with placebo for 14 days with the last administration on the study day and administration of 25 mg psilocybin 2 hours later. Treatment order was random and counterbalanced. Between the 14 days pretreatment and the study day, there were at least 2 days washout until the next pretreatment phase began.
Autonomic measures: Blood pressure, heart rate, and body temperature were recorded at baseline and repeatedly throughout the session. Blood pressure (systolic and diastolic) and heart rate were measured with an automatic oscillometric device. Body temperature was measured with an ear thermometer as previously described in detail (Hysek et al., 2010). Measures were taken before and at 0, 0.25, 0.5, 0.75, 1, 1.5, 2, 2.5, 3, 4, 5, 6 and 7 hours after psilocybin administration.
Data analysis: Peak (Emax and/or Emin) or peak change from baseline (ΔEmax) values were determined for repeated measures. The values were then analyzed using paired T-tests using Statistica 12 software (StatSoft, Tulsa, OK, USA). The criterion for significance was p<0.05.

[6] = after escitalopram pretreatment
[7] = after psilocybin, after escitalopram pretreatment
[8] = after psilocybin, after placebo pretreatment

For `O=C(O)Cc1c[nH]c2cccc(O)c12` [4-HIAA, 4-hydroxyindole-3-acetic acid], the “increase in metabolite concentrations over time” value ([1]; 4-HIAA compared to the glucuronide) was “faster”.

In the case of `CN(C)CCc1c[nH]c2cccc(O)c12` [psilocin], the metabolism of psilocin ([1]; after 25 mg psilocybin) is reported as “metabolized to approximately similar extents to inactive 4-HIAA and psilocin-glucuronide”, the half-life ([1]; human, plasma, oral, non-glucuronidated (nonconjugated) psilocin after 25 mg psilocybin, read-out: elimination half-life (converted)) is reported as 2 h and the “mean time to maximal plasma concentration” value ([1]; non-glucuronidated (nonconjugated) psilocin after 25 mg psilocybin) is reported as 2 h. For the same compound, the “conjugation (glucuronidation) in plasma” value ([1]; samples analyzed with and without glucuronidase) was “A large proportion of psilocin underwent glucuronidation”.

For `CN(C)CCc1c[nH]c2cccc(O[C@@H]3O[C@H](C(=O)O)[C@@H](O)[C@H](O)[C@H]3O)c12` [psilocin glucuronide], the elimination half-life [1, 6] was 5.2 h, the “mean time to peak concentrations” value [1, 6] was 3.74 h and the elimination half-life ([1]; after escitalopram pretreatment, listed as Glucuronidated psilocin) was 4.5 h. For the same compound, the elimination half-life ([1]; after placebo pretreatment) was 4.5 h, the “mean time to peak concentrations” value ([1]; after placebo pretreatment) was 3.8 h and the elimination half-life ([1]; after placebo pretreatment, listed as Glucuronidated psilocin) was 4.1 h. For the same compound, the “mean time to peak concentrations” value ([1]; pretreatments not separated) was 3.2 to 3.4 h.

For `CN(C)CCc1c[nH]c2cccc(OP(=O)(O)O)c12` [Psilocybin, psilocybin], the QTc times (healthy subjects [2]) was “did not increase”, the “type and amount of adverse events following psilocybin administration” value (healthy subjects [3]; after escitalopram and placebo pretreatment) was “comparable” and the “adverse aftereffects: abdominal bloating” value (healthy subjects [3]; [7]) was “one”. For the same compound, the “adverse aftereffects: flash backs” value (healthy subjects [3]; [7]) was “one”, the “adverse aftereffects: headaches” value (healthy subjects [3]; [7]) was “six” and the “adverse aftereffects: lack of energy” value (healthy subjects [3]; [7]) was “one”. For the same compound, the “adverse aftereffects: nausea” value (healthy subjects [3]; [7]) was “one”, the “adverse aftereffects: flash backs” value (healthy subjects [3]; [8]) was “one” and the “adverse aftereffects: headaches” value (healthy subjects [3]; [8]) was “six”. The “adverse aftereffects: nausea” value (healthy subjects [3]; [8]) was “one”, the “adverse aftereffects: vasovagal syncope” value (healthy subjects [3]; [8]) was “one” and the bad drug effects (healthy subjects [4]; healthy subjects) was “only moderate”. For the same compound, the anxiety (healthy subjects [4]; healthy subjects (FIG. 6B)) was “only moderate”, the body temperature (healthy subjects [5]) was “moderately increased” and the diastolic blood pressure (healthy subjects [5]) was “moderately increased”. For the same compound, the heart rate (healthy subjects [5]) was “changed only minimally”, the pupil size (healthy subjects [5]) was “moderately increased” and the rate-pressure product (healthy subjects [5]) was “moderately increased”. The systolic blood pressure (healthy subjects [5]) was “moderately increased”.
